Reference: patent US11458189B2, “Cytoprotective drugs” (BALMES TRANSPLANTATION, priority 2017, dated 2022)

System: Sprague Dawley rats
Assay: Survival in acute renal failure model (unilateral renal ischemia-reperfusion with contralateral nephrectomy)
Format: in vivo, rat
Details: Allopurinol 3 mg/kg single iv injection 60 min before ischemia; up to 7 days after reperfusion; control group 29%
Procedure: The protocol is similar to the one described by Narayan P et al, Am J Physiol Renal Physiol, 311(2):F352-61, 2016 and was approved by an ethics committee. In summary, general anesthesia is induced in male Sprague Dawley rats (250-300 g) using sodium pentobarbital (60 mg/kg, ip) instead of ketamine/xylazine in the protocol described by Narayan P et al, Am J Physiol Renal Physiol, 311 (2): F352-61, 2016. A skin incision is made on the dorsal surface and the left kidney is exposed by incisions on the flank. The left renal pedicle is then isolated and clamped for 60 minutes using atraumatic vascular clamps. The kidneys are replaced in the abdominal cavity to maintain temperature and the incision is covered with gauze soaked in 0.9% saline. After the ischemia time (60 minutes), the clamps are released to begin reperfusion. Reperfusion is monitored (kidney color change) for 1 to 2 minutes and physiological saline (1 mL) is administered to prevent dehydration. Next, a right kidney nephrectomy is performed and the incisions are closed with sutures. The animals are kept at approximately 37° C. using a thermoregulated system during the operation. Buprenorphine (0.2 mg/kg sc) is administered before the animals are returned to their cages and once a day until 4 days after reperfusion. […]
The compounds Micafungin (0.25 mg/kg), Anidulafungin (0.35 mg/kg) or the combination of the compounds Micafungin (0.25 mg/kg) and Allopurinol (3 mg/kg) are administered solubilized in physiological saline as a single intravenous injection into the tail vein 60 (±15) minutes before the onset of ischemia. The volume of administration of the compounds is determined on the basis of the body weight (2 mL/kg) of each animal. […]
For each experiment the curve of the number of surviving animals versus the number of days post-ischemia-reperfusion (Kaplan-Meier curve) is shown. The x-axis is graduated from the first day =0 to the seventh day =6 The y-axis is graduated from 0% to 100% of the initial population of the analyzed group. […]

Oc1ncnc2[nH]ncc12 [Allopurinol]
Surviving animals at end of Kaplan-Meier curve (% of initial population of the group): 63%
